Assay results: patent publication US10524455B2, “Methods and compositions for inducing hygienic behavior in honey bees” (University of North Carolina at Greensboro, priority 2015, dated 2020)

Columns and labels:
[1] = system: honey bees (single VSH colony); experiment: Induced hygienic behavior study with synthesized P32 applied to cell caps by airbrushing; assay type: in vivo, honey bee; settings: for removal of pupae in treated brood cells compared to all control brood cells: roughly 10 ul per cell by airbrushing, 24 hours, controls: (Z)-16-dotriacontene at any concentration, hexane, no treatment; for dose dependence of removal: concentrations 1%, 0.3%, 0.1% by airbrushing
Method: Methods: The dose dependent removal effects of (Z)-10-tritriacontene and (Z)-16-dotriacontene applied to wax caps of honey bee brood cells were measured repeatedly in a single VSH colony. (Z)-10-tritriacontene, along with (Z)-16-dotriacontene and hexane controls were applied to capped honey bee brood cells using a Paasche H-100D Single Action Airbrush & Compressor system, operating at 25 PSI. To control the amount of brood cells exposed to each chemical treatment (and thus the dose per cell) 3″ diameter PVC pipe pieces were inserted into a brood frames containing capped pupae. Thus, for each treatment and replicate, 2 mL of solution was applied to a single 3″-diameter section of brood comb by airbrushing. Since there are roughly 200 cells per 3″ diameter circle, this is roughly 10 ul solution per cell. Concentrations of 1%, 0.3%, and 0.1% (Z)-10-tritriacontene and (Z)-16-dotriacontene were tested. Sample sizes for (Z)-10-tritriacontene were 532, 420, and 282 cells for concentrations of 1%, 0.3%, and 0.1%, respectively. Sample sizes for (Z)-16-dotriacontene were 289, 296, and 311 for concentrations of 1%, 0.3%, and 0.1%, respectively. Sample sizes for the hexane control and no treatment control were 425 and 154, respectively. The location of all assays on frames was randomized. The frequency of uncapping and removal was recorded at four hours and twenty-four hours post treatment. Chi-square analysis with Bonferroni correction was used to compare hygienic removal and uncapping between treatments.

[2] = system: honey bees (MH and control colonies); experiment: Induced hygienic behavior study with synthesized P32 applied to cell caps by syringe; assay type: in vivo, honey bee; settings: results discarded by the patent for methodological issues
Method: Methods: The pure P32 compound will be aliquoted and diluted in hexane. 1 ul of different dilutions will be applied onto larvae and/or caps of individual brood cells in three experimental hives. The VSH, MH, and control genotype (together, hereinafter, referred to as “line”) will be tested for their response. Hives from each source will be set up in an experimental apiary and standardized in size, brood, and resources. Brood frames containing uncapped 5th larval instars will be collected from each hive, and the location of the uncapped cells will be marked using a plastic transparency. Frames will be replaced into the hives, and cells that are capped within the next 16 hours will be recorded and used for the experiment. At day 4 post-capping, cells will be treated with hexane (a negative control) or one of the following dilutions of pure P32: 10^−1, 10^−3, 10^−5, 10^−7, 10^−9, 10^−11. Pin-killed brood will be used as a positive control. Twenty cells will receive each treatment in each colony for a total sample size of 1440 (20 cells×8 treatments×3 replicate hives×3 genotypes). Treatments will be randomly distributed across experimental combs and the location of each treatment recorded on a clear transparent sheet put over the comb. […] A new method for application of chemicals by airbrushing was also utilized to increase speed and quantity in chemical application (FIG. 12).

| SMILES | removal of pupae in treated brood cells compared to all control brood cells ([1]; 0.3% in hexane) | removal of pupae in treated brood cells compared to all control brood cells ([1]; 1% in hexane) | dose dependence of removal [1] | removal of treated cells compared to hexane treated cells ([2]; MH colonies (both tested)) | removal of treated cells compared to hexane treated cells ([2]; control colonies) |
| --- | --- | --- | --- | --- | --- |
| CCCCCCCCC/C=C\CCCCCCCCCCCCCCCCCCCCCC [(Z)-10-tritriacontene] | significantly greater | significantly greater | removed in a dose-dependent manner | significantly higher removal | no significant difference |
| CCCCCCCCCCCCCCC/C=C\CCCCCCCCCCCCCCC [(Z)-16-dotriacontene, reference compound] |  |  | removed in a dose-dependent manner |  |  |
